Laboratory results published in patent publication US11384071B2, “Inhibitors of mechanotransduction to treat pain and modulate touch perception” (Max-Delbrück-Centrum für Molekulare Medizin in der …, priority 2016, dated 2022).

Experiments:
[1] = test system: cutaneous sensory afferents of the saphenous nerve; experiment: Ex vivo skin-nerve preparation after local injection into the paw; format: in vivo, mouse
Method: Mice were killed by CO2 inhalation for 2-4 min followed by cervical dislocation. The saphenous nerve and the shaved skin of the hind limb were dissected free and placed in an organ bath. The chamber was perfused with a synthetic interstitial fluid (SIF buffer) the composition of which was (in mM): NaCl, 123; KCl, 3.5; MgSO4, 0.7; NaH2PO4, 1.7; CaCl2), 2.0; sodium gluconate, 9.5; glucose, 5.5; sucrose, 7.5; and HEPES, 10 at a pH of 7.4. The skin was placed with the corium side up in the organ bath. The nerve was placed in an adjacent chamber on a mirror to aid fiber teasing under a stereomicroscope. Fine filaments were teased from the saphenous nerve and placed on the recording electrode.
For the electrical search protocol a micro electrode (1 MΩ) was gently maneuvered to contact the epineurium of the nerve trunk and an electrical stimulation was delivered at a one second interval with square wave pulses of […] duration. […] The electrical nerve stimulation was done at 2 distant sites of the saphenous nerve to trace electrically identified units to their receptive fields. Mechanical sensitivity of single units was tested by mechanical stimulation with a glass rod. For the mechanical search protocol, single units were identified by gentle mechanical stimulation of their receptive field with a glass rod. Mechanically-evoked spikes were visualized and the template saved in an oscilloscope. Then, a sharp tungsten metal electrode was placed in the receptive field and an electrically evoked spike was elicited with suprathreshold current pulses and the electrical latency, the time from the stimulation artifact to spike, was recorded. The distance between the stimulating and recording electrode was designated as the conduction distance. For each isolated fiber the conduction velocity was calculated by dividing conduction distance over electrical latency for the spike.
A computer-controlled nanomotor (Kleindiek, Reutlingen, Germany) was used to apply controlled displacement stimuli of known amplitude and velocity. The probe was a stainless steel metal rod and the diameter of the flat circular contact area was 0.8 mm containing a force transducer (Kleindiek, Reutlingen, Germany). The signal driving the movement of the linear motor and raw electrophysiological data were collected with a Powerlab 4.0 system (ADInstruments) and spikes were discriminated off-line with the spike histogram extension of the software.
We made subcutaneous injections of the OB-1 compound (250-500 pmol per paw) into the hairy skin of the mouse lateral foot innervated by the saphenous nerve and recorded from sensory afferents 3 h later using an ex vivo skin—nerve preparation^5,25.

[2] = test system: dissociated mouse DRG neurons; experiment: Action potential properties and electrical excitability of dissociated DRG neurons; format: cell-based
Method: (§1) Whole-cell, patch-clamp recordings were conducted as previously described 5-7, using patch pipettes with a tip resistance of 3-6 MΩ, filled with a solution of: 110 mM KCl, 10 mM NaCl, 1 mM MgCl2, 1 mM EGTA and 10 mM HEPES, adjusted to pH 7.3 with KOH. (For experiments on DRG neurons 10 mM QX-314 was added to the pipette to block voltage-gated sodium channels 8 Extracellular solutions contained 140 mM NaCl, 4 mM KCl, 2 mM CaCl2, 1 mM MgCl2, 4 mM glucose, 10 mM HEPES, adjusted to pH 7.4 with NaOH. A Zeiss 200 inverted microscope and an EPC-10 amplifier in combination with Patchmaster software was used, data was analyzed using Fitmaster software (HEKA Electronik GmbH, Germany). Pipette and membrane capacitance were compensated using the auto function of Patchmaster, series resistance was compensated by at least 60% to minimize voltage errors. Mechanical stimuli were applied using a polished glass probe driven by the MM3A micromanipulator (Kleindiek Nanotechnik, Germany). Mechanical stimuli were applied by either; indenting the cell soma or by culturing cells on elastomeric pillar arrays and applying the stimulus to the cell-substrate interface by deflecting an individual pilus.
Briefly, elastomeric pillar arrays of defined dimensions were cast in PDMS with an elasticity of 2 MPa. Cells cultured on these arrays were monitored using whole-cell patch-clamp whilst a glass probe was used to apply repeated deflections (of differing magnitudes) to an individual pilus directly beneath the cell. Images were obtained of the pilus before and after deflection and images were analyzed off-line to determine the exact deflection for each data point. Images were obtained using a 40×LD objective and a CoolSNAP EZ CCD camera. Images were analyzed off-line using Igor software (WaveMetrics, USA). The collection of stimulus-response data using pillar arrays generates data sets with variation in both x and y. In order to effectively compare groups for each cell studied we binned response data by stimulus size in the following bins: 0-10, 10-50, 50-100, 100-250, 250-500, 500-1000. For each cell, current amplitudes within each bin were averaged and then bins averaged between cells—we then tested for significance by testing whether the current amplitude for a given stimulation range (i.e. bin) differed between samples. A power analysis was used to determine that moderate to strong effects between samples could be detected with a sample size >4. […] To distinguish mechanoreceptors from nociceptors in the mixed population of acutely prepared DRG neurons, the shape of the generated action potential (AP) was used. […] For quantitative analysis of mechanosensitivity we measured responses in the most sensitive sub-population of mechanoreceptors, previously defined as Typell mechanoreceptors (Poole et al., 2014).
We evaluated the effects of OB-1 and OB-2 on mechanosensitive currents in acutely cultured mouse sensory neurons. Neurons were classified on the basis of their AP configuration as mechanoreceptors or nociceptors^2,21.

[3] = test system: RA-currents in mechanoreceptor sensory neurons; experiment: Cell soma indentation, RA-mechanosensitive currents in sensory neurons; format: cell-based, mouse
Method: as §1
We evaluated the effects of OB-1 and OB-2 on mechanosensitive currents in acutely cultured mouse sensory neurons. […]

## CCOC(=O)c1c(-c2ccccc2)oc2ccc(Oc3c([N+](=O)[O-])ncn3C)cc12 [OB-1, Ethyl 5-((1-methyl-4-nitro-1H-imidazol-5-yl)oxy)-2-phenylbenzofuran-3-carboxylate]
[1]; 8/38 fibers vs 5% in controls, not significantly different
  fibers for which no mechanosensitive receptive field could be found (printed Aβ-fibers): 21%
[1]; 3 h after 250-500 pmol per paw s.c., 19/44 fibers, vehicle less than 7%
  Aβ-fibers lacking a mechanosensitive receptive field: over 40%
[1]; 3 h after local treatment
  proportion of C-fibers that lack a mechanosensitive receptive field: no change
[1]; OB-1 treated skin
  firing rates of C-mechanonociceptors (C-Ms) to suprathreshold mechanical stimuli: not significantly attenuated
[1]; OB-1 treated skin vs controls
  proportion of mechanoreceptor types and mechanosensitivity of remaining Aβ-fiber mechanoreceptors (RAMs, SAMs): unchanged
[1]; OB-1 treated skin, vehicle 106.9±17.4 mN
  mechanical threshold for activation of C-mechanoheat fibers: 196.5±35.6 mN
[1]; ascending displacements 32-1024 μm, vs vehicle
  stimulus response function of C-MH fibers: significantly less responsive
[1]; displacements 32-1024 μm
  mechanosensitivity of A-mechanonociceptors (AM): no changes
[1]; female mice as in male mice
  proportion of Aβ-fibers insensitive to mechanical stimuli: almost identical proportion
[1]; vehicle vs OB-1
  mean force thresholds for C-M fiber: not different
[2]; Mechanoreceptors (n = 9)
  AHP (after-hyperpolarization potential): −62.3 ± 1.6 mV
  APamp (action potential amplitude): 97.8 ± 4.9 mV
  APtime (total duration of action potential): 11.90 ± 2.9 ms
  Input R: 40.8 ± 6.7 MΩ
  Threshold: 700.0 ± 305.9 pA
  Tpeak (Time to action potential peak): 7.5 ± 2.0 ms
  Trep (Time to repolarizing peak): 4.5 ± 1.7 ms
  Vrest (Resting potential): −56.6 ± 2.0 mV
[2]; Nociceptors (n = 12)
  AHP (after-hyperpolarization potential): −67.4 ± 1.3 mV
  APamp (action potential amplitude): 115.4 ± 4.0 mV
  APtime (total duration of action potential): 10.0 ± 1.5 ms
  Input R: 56.7 ± 5.2 MΩ
  Threshold: 1276.4 ± 256.0 pA
  Tpeak (Time to action potential peak): 5.0 ± 0.7 ms
  Trep (Time to repolarizing peak): 5.0 ± 1.1 ms
  Vrest (Resting potential): −59.5 ± 1.2 mV
[2]; treated at least 3 h with 20 μM
  parameters indicative of electrical excitability: no alteration
[3]
  inactivation time constant (τ2) of mechanically-gated currents: slowed
[3]; 12/21 neurons, control 21%
  neurons displaying no mechanosensitive current: ~60%
